Tests used:
[1] = tested on: ryegrass, Italian; test: Test C pre-/postemergence herbicide test; format: in vivo, Lolium multiflorum
How it was run: (§1)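 Two application timings ran in parallel with identically formulated test chemicals (non-phytotoxic solvent, surfactant included): spray on seeded loam–sand soil, and spray on emerged plants 2 to 18 cm high. Evaluation at 13 to 15 days compared each species with controls, rated from 0 up to 100.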

[2] = tested on: wheat; test: Test A pre-/postemergence herbicide test; format: in vivo, Triticum aestivum; details: Postemergence
How it was run: (§2)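 Directed soil spray to seeded pots (preemergence) or spray onto one- to two-leaf seedlings 2–10 cm tall (postemergence); loam/sand substrate throughout. Evaluated visually after about 10 days against untreated plants, 0 = no effect, 100 = complete control.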

[3] = tested on: nutsedge, yellow; test: Test C pre-/postemergence herbicide test; format: in vivo, Cyperus esculentus
How it was run: as §1

[4] = tested on: oilseed rape; test: Test C pre-/postemergence herbicide test; format: in vivo, Brassica napus
How it was run: as §1

[5] = tested on: blackgrass; test: Test C pre-/postemergence herbicide test; format: in vivo, Alopecurus myosuroides
How it was run: as §1

[6] = tested on: galium; test: Test C pre-/postemergence herbicide test; format: in vivo, Galium aparine
How it was run: as §1

[7] = tested on: pigweed; test: Test A pre-/postemergence herbicide test; format: in vivo, Amaranthus retroflexus
How it was run: as §2

[8] = tested on: barnyardgrass; test: Test A pre-/postemergence herbicide test; format: in vivo, Echinochloa crus-galli
How it was run: as §2

[9] = tested on: ducksalad; test: Test B flooded paddy test; format: in vivo, Heteranthera limosa; details: 500 g ai/ha, Flood; scale of 0 to 100 where 0 is no effect and 100 is complete control
How it was run: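 Plants were grown to the 2-leaf stage, then pots were flooded to 3 cm above the soil and compound was applied directly into the paddy water, with that depth held throughout. After 13 to 15 days in a greenhouse, injury was rated visually against untreated controls on a 0 to 100 scale (100 = complete control).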

[10] = tested on: wheat (winter wheat); test: Test C pre-/postemergence herbicide test; format: in vivo, Triticum aestivum
How it was run: as §1

[11] = Postemergence, 31 g ai/ha, scale 0 to 100 (0 no effect, 100 complete control)
[12] = Postemergence, 62 g ai/ha, scale 0 (no effect) to 100 (complete control)
[13] = Postemergence, 125 g ai/ha, scale 0 to 100 (0 no effect, 100 complete control)
[14] = Postemergence, 250 g ai/ha, scale 0 to 100 (0 no effect, 100 complete control)
[15] = Preemergence, 31 g ai/ha, scale 0 to 100, 0 is no effect and 100 is complete control
[16] = Preemergence, 62 g ai/ha, scale 0 to 100 (0 no effect, 100 complete control)
[17] = Preemergence, 125 g ai/ha, scale 0 to 100 (0 no effect, 100 complete control)
[18] = 125 g ai/ha, visual rating, 0 to 100 scale, 0 no effect, 100 complete control, approximately 10 days, preemergence
[19] = Postemergence, 125 g ai/ha, 0 to 100 scale, 0 is no effect, 100 is complete control
[20] = preemergence, 500 g ai/ha, 0 to 100 scale, 0 is no effect and 100 is complete control
[21] = 125 g ai/ha, visual rating on 0 to 100 scale (0 no effect, 100 complete control), approx. 10 days
[22] = Postemergence, 125 g ai/ha, visual rating on 0 to 100 scale (0 no effect, 100 complete control), approx. 10 days
[23] = Postemergence, 500 g ai/ha, 0 to 100 scale (0 no effect, 100 complete control)
[24] = Preemergence, 125 g ai/ha, 0 to 100 scale where 0 is no effect and 100 is complete control
[25] = Preemergence, 125 g ai/ha, scale 0 to 100
[26] = Preemergence, 31 g ai/ha, scale 0 to 100
[27] = Preemergence, 500 g ai/ha, visual rating on 0 to 100 scale (0 no effect, 100 complete control)

O=C1NCC(c2ccc(C(F)(F)F)cc2)C1C(=O)Nc1cccc(F)c1F (racemic) [Compound 202]
0: Plant response rating, Ryegrass, Italian [1, 11] | Plant response rating, Ryegrass, Italian [1, 12] | Ryegrass, Italian plant response rating [1, 15] | Plant response rating, Nutsedge, Yellow [3, 11] | Plant response rating, Nutsedge, Yellow [3, 12] | Plant response rating, Nutsedge, Yellow [3, 13] | Plant response rating, Nutsedge, Yellow [3, 14] | Nutsedge, Yellow plant response rating [3, 15] | Nutsedge, Yellow plant response rating [3, 16] | Plant response rating, Nutsedge, Yellow [3, 17] | Plant response rating (scale of 0 to 100), Nutsedge, Yellow ([3]; Preemergence, 250 g ai/ha) | Plant response rating, Oilseed Rape [4, 11] | Plant response rating, Oilseed Rape [4, 12] | Plant response rating, Blackgrass [5, 11] | Plant response rating, Blackgrass [5, 12] | Plant response rating, Wheat [10, 11] | Plant response rating, Wheat [10, 12] | Plant response rating, Wheat [10, 13] | Wheat plant response rating [10, 15]
80: Oilseed Rape plant response rating [4, 16] | Plant response rating, Blackgrass ([5]; Preemergence, 62 g ai/ha, scale 0 to 100) | Plant response rating, Galium [6, 11] | Plant response rating, Galium [6, 12] | Plant response rating, Galium [6, 13] | Plant response rating, Galium [6, 14] | Pigweed plant response rating (0 to 100 scale, 0 is no effect, 100 is complete control) ([7]; Postemergence, 500 g ai/ha) | Plant response rating, Barnyardgrass [8, 19]
40: Plant response rating, Wheat ([2]; 125 g ai/ha, 0 to 100 scale, 0 is no effect, 100 is complete control)
85: Plant response rating, Oilseed Rape [4, 17] | Galium plant response rating [6, 15]
25: Oilseed Rape plant response rating [4, 15]
90: Plant response rating (scale of 0 to 100), Oilseed Rape ([4]; Preemergence, 250 g ai/ha) | Plant response rating, Blackgrass [5, 17] | Plant response rating (scale of 0 to 100), Blackgrass ([5]; Preemergence, 250 g ai/ha) | Galium plant response rating [6, 16] | Plant response rating, Galium [6, 17] | Plant response rating (scale of 0 to 100), Galium ([6]; Preemergence, 250 g ai/ha) | Plant response rating, Barnyardgrass [8, 18] | Barnyardgrass plant response rating (0 to 100 scale, 0 is no effect, 100 is complete control) ([8]; Postemergence, 500 g ai/ha) | Plant response rating, Barnyardgrass [8, 20]
10: Plant response rating, Blackgrass [5, 14]
100: Plant response rating, Ducksalad [9]
60: Plant response rating, Pigweed [7, 18] | Plant response rating (scale of 0 to 100), Wheat ([10]; Preemergence, 250 g ai/ha)
5: Plant response rating, Ryegrass, Italian [1, 13] | Plant response rating (scale of 0 to 100), Ryegrass, Italian ([1]; Preemergence, 250 g ai/ha) | Plant response rating, Blackgrass [5, 13] | Plant response rating, Wheat [10, 14]
30: Ryegrass, Italian plant response rating [1, 16] | Plant response rating, Ryegrass, Italian [1, 17] | Wheat plant response rating [10, 16]
35: Plant response rating, Ryegrass, Italian [1, 14]
70: Blackgrass plant response rating [5, 15] | Plant response rating, Pigweed [7, 19] | Plant response rating, Pigweed [7, 20]
50: Wheat plant response rating (0 to 100 scale, 0 is no effect, 100 is complete control) ([2]; 500 g ai/ha) | Plant response rating, Oilseed Rape [4, 13] | Plant response rating, Oilseed Rape [4, 14]
55: Plant response rating, Wheat [10, 17]

O=C1NCC(c2cc(F)cc(F)c2)C1C(=O)Nc1ccccc1Cl (racemic) [Compound 280]
0: Ryegrass, Italian plant response rating [1, 15] | Ryegrass, Italian plant response rating [1, 16] | Plant response rating, Ryegrass, Italian [1, 17] | Plant response rating, Wheat [2, 21] | Plant response rating, Wheat ([2]; 500 g ai/ha, 0 to 100 scale (0 no effect, 100 complete control)) | Nutsedge, Yellow plant response rating [3, 15] | Nutsedge, Yellow plant response rating [3, 16] | Plant response rating, Nutsedge, Yellow [3, 17] | Oilseed Rape plant response rating [4, 15] | Plant response rating, Oilseed Rape [4, 17] | Plant response rating (scale of 0 to 100), Oilseed Rape ([4]; Preemergence, 250 g ai/ha) | Blackgrass plant response rating [5, 15] | Blackgrass plant response rating [5, 16] | Plant response rating, Blackgrass [5, 17] | Plant response rating (scale of 0 to 100), Blackgrass ([5]; Preemergence, 250 g ai/ha) | Galium plant response rating [6, 15] | Galium plant response rating [6, 16] | Plant response rating, Galium [6, 17] | Plant response rating, Pigweed [7, 22] | Plant response rating, Pigweed [7, 23] | Plant response rating, Pigweed [7, 24] | Plant response rating, Pigweed [7, 20] | Wheat plant response rating [10, 15] | Wheat plant response rating [10, 16] | Plant response rating (scale of 0 to 100), Wheat ([10]; Preemergence, 250 g ai/ha)
85: Plant response rating (scale of 0 to 100), Galium ([6]; Preemergence, 250 g ai/ha)
90: Plant response rating, Barnyardgrass [8, 23]
80: Plant response rating, Barnyardgrass [8, 19] | Plant response rating, Barnyardgrass [8, 24] | Plant response rating, Barnyardgrass [8, 20]
5: Plant response rating (scale of 0 to 100), Ryegrass, Italian ([1]; Preemergence, 250 g ai/ha)
30: Oilseed Rape plant response rating [4, 16]
100: Plant response rating (scale of 0 to 100), Nutsedge, Yellow ([3]; Preemergence, 250 g ai/ha) | Plant response rating, Ducksalad [9]

O=C1NCC(c2ccc(OC(F)F)cc2)C1C(=O)Nc1cccc(F)c1F (racemic) [Compound 350]
85: Plant response rating (scale of 0 to 100), Oilseed Rape ([4]; Preemergence, 250 g ai/ha) | Galium plant response rating [6, 16]
80: Plant response rating, Oilseed Rape [4, 25] | Pigweed plant response rating [7, 27]
50: Plant response rating, Blackgrass [5, 25] | Plant response rating, Pigweed [7, 24]
55: Plant response rating (scale of 0 to 100), Blackgrass ([5]; Preemergence, 250 g ai/ha)
0: Ryegrass, Italian plant response rating [1, 16] | Plant response rating, Ryegrass, Italian [1, 26] | Nutsedge, Yellow plant response rating [3, 16] | Plant response rating, Nutsedge, Yellow [3, 25] | Plant response rating (scale of 0 to 100), Nutsedge, Yellow ([3]; Preemergence, 250 g ai/ha) | Plant response rating, Nutsedge, Yellow [3, 26] | Blackgrass plant response rating [5, 16] | Plant response rating, Blackgrass [5, 26] | Wheat plant response rating [10, 16] | Plant response rating, Wheat [10, 25] | Plant response rating, Wheat [10, 26]
20: Plant response rating, Wheat [2, 21] | Plant response rating, Pigweed [7, 22]
70: Oilseed Rape plant response rating [4, 16] | Plant response rating, Barnyardgrass [8, 22]
90: Plant response rating, Galium [6, 25] | Plant response rating (scale of 0 to 100), Galium ([6]; Preemergence, 250 g ai/ha) | Plant response rating, Barnyardgrass [8, 23] | Plant response rating, Barnyardgrass [8, 24] | Barnyardgrass plant response rating [8, 27]
5: Plant response rating, Ryegrass, Italian [1, 25] | Plant response rating, Oilseed Rape [4, 26]
100: Plant response rating, Ducksalad [9]
30: Plant response rating, Galium [6, 26]

— patent US10294202B2, “Pyrrolidinones as herbicides” (FMC Corporation, priority 2013, dated 2019)
